From patent US12090147B2, “Combination therapy with 2-(4-chlorophenyl)-N-((2-(2,6-dioxopiperidin-3-yl)-1-oxoisoindolin-5-yl)methyl)-2,2-difluoroacetamide” (Celgene Corporation, priority 2019, dated 2024)

Columns and labels:
KG-1 = test: Cell viability (CELL TITER-GLO), Compound 1 IC50; type: cell-based; details: Homo sapiens; KG-1 (myeloblast, FAB M0)
Protocol: (§1) For CELL TITER-GLO® (CTG; Promega) and Incucyte assays, cells were seeded at 0.1 million per mL, 50 μL per well of Corning black 384-well plate and allowed set overnight. The next day, test compounds were dispensed using a Tecan D300e digital dispenser according to manufacturer's instruction.
(§2) Human AML cell lines, HL-60 (CCL-240), KG-1 (CCL-246), ML-2 (ACC-15), MOLM-13 (ACC-554), MV-4-11 (CRL-9591), NOMO-1 (ACC-542), TF-1 (CRL-2003), THP-1 (TIB-202), and U937 (CRL-1593) were obtained from American Type Culture Collection (ATCC; Manassas, VA) or Deutsche Sammlung von Mikroorganismen and Zellkulturen (DSMZ, Germany) cell banks. Acute myeloid leukemia cell lines were maintained in RPMI-1640 (ATCC Cat No. 30-2001) containing 20% fetal bovine serum (FBS) (Corning Cat No. 35-010-CV) and maintained in humidified incubators at 5% carbon dioxide.
(§3) AML cell lines and primary AML were treated in duplicate or triplicates with DMSO or test compounds in 384-well plates for 3 days. Cell viability was determined by CELL TITER-GLO® (CTG; Promega) assay kit according to manufacturer's instructions. Apoptosis was monitored using Caspase 3/7 Green reagent (Essen Biosciences Cat No. 4440). Caspase-3/7 activation levels were quantified using the IncuCyte™ ZOOM basic analyzer.
(§4) Cell proliferation (CTG) and caspase 3/7 activation (IncuCyte) were analyzed using GraphPad Prism. Electrochemiluminescence data was analyzed using MSD Discovery Workbench platform.

MOLM-13 = test: Cell viability (CELL TITER-GLO), Compound 1 IC50; type: cell-based; details: Homo sapiens; MOLM-13 (monocytic, FAB M5a)
Protocol: as §1, §2, §3, §4

MV4-11 = test: Cell viability (CELL TITER-GLO), Compound 1 IC50; type: cell-based; details: Homo sapiens; MV4-11 (acute myeloid leukemia, FAB M5)
Protocol: as §1, §2, §3, §4

NOMO-1 = test: Cell viability (CELL TITER-GLO), Compound 1 IC50; type: cell-based; details: Homo sapiens; NOMO-1 (macrophage, FAB M5a)
Protocol: as §1, §2, §3, §4

TF-1 = test: Cell viability (CELL TITER-GLO), Compound 1 IC50; type: cell-based; details: Homo sapiens; TF-1 (erythroblast, FAB M6)
Protocol: as §1, §2, §3, §4

[1] = test system: Normal Peripheral Blood Mononuclear Cells; test: Cytokine induction, electrochemiluminescence assay of culture supernatant; type: cell-based, human; details: PBMC
Protocol: Normal PBMCs were purchased from AllCells (Cat No. PB006F). Primary AML BMMC in were purchased from Conversant (SKU ID: BBM1000-E1110036458110215SH) or Fidelis Research (AML55, AML57, AML73, AML74, AML76, AML79, AML80, AML81, AML84, AML95). Bone marrow from health donor was purchased from StemCell Technologies (Cat No. 70001.2).
Normal PBMCs were cultured in RPMI-1640 (ATCC Cat No. 30-2001) containing 20% fetal bovine serum (Corning Cat No. 35-010-CV). Primary AML and bone marrows were cultured in Complete Medium Cytokines 1X: StemSpam™ Serum-Free Expansion Medium (StemCell Technologies Cat No. 09650) supplemented with 50 ng/mL Stem Cell Factor (Peprotech Cat No. 300-07), 50 ng/mL recombinant Human FLT3-Ligand (Peprotech Cat No. 300-19), 20 ng/mL recombinant human-interleukin-3 (Peprotech Cat No. 200-03), […] recombinant human-interleukin-6 (Peprotech Cat No. 200-06), 1 μM StemRegenin (StemCell Technologies Cat No. 72342), penicillin/streptomycin (Invitrogen Cat No. 15140122).
IL-1α (Meso Scale Disgnostics, Cat No. K151RBD), IL-1β (Meso Scale Disgnostics, Cat No. K151QPD), IL-1RA (Meso Scale Disgnostics, Cat No. K151WTD), IL-18 (Meso Scale Disgnostics, Cat No. K151VJK), TNFa (Meso Scale Disgnostics, Cat No. K151QWD), VEGF Meso Scale Disgnostics, Cat No. K151RHD) levels were measured by (Meso Scale Disgnostics assay kits following manufacturer's instructions. Measurements were made on a MESO™ SECTOR S 600 plate reader (Meso Scale Disgnostics).
as §4
The level of intracellular pro IL-1β and released IL-1β in eight AML cell lines and normal PBMC treated with a titration of Compound 1 over a 48 hour period was assessed. (see FIGS. 1A-1C, Table 2). Supernatant IL-1βb level was induced over 5 fold in 6 out of 8 AML cell lines and normal PBMC upon Compound 1 treatment compared to DMSO (FIGS. 1A, 1B, and 1C, Table 2).

[2] = test system: ML-2 parental, caspase 1 and caspase 8 knock out cells; test: IL-1β in CRISPR/Cas9 caspase 1 or caspase 8 knock out cells (lysate and supernatant); type: cell-based, human; details: 1 μM Compound 1
Protocol: To further confirm if caspase 8 is necessary for Compound 1 induced IL-1β upregulation and/or release, knock out studies were performed. Caspase 1 or caspase 8 was knocked out by CRISPR/Cas9 in ML-2 cells, and the effect of Compound 1 on intracellular and secreted IL-1β levels was investigated. Parental, caspase 1 and caspase 8 knock out cells were treated with or without 1 μM Compound 1. IL-1β levels were analyzed 48 and 72 hours post-compound treatment in cell lysate and culture supernatant.

[3] = test system: isogenic MV4-11 Cas9 cell pair (GCN2); test: Isogenic cell pair, wildtype GCN2 vs GCN2 deleted; type: cell-based, human
Source text: ISR, especially via GCN2 pathway, is one of the key pathways contributed to GSPT1 mediated cell death. GCN2 knock down blocked ATF4 and CHOP induction by Compound 1, and suppressed caspase 3 and caspase 8 activation. GCN2 has been implicated in IL-1β production. GCN2 activation inhibit classical caspase 1 mediated inflammasome activation in intestinal cells and that GCN2 knock down in CD11c+ antigen presenting cells or intestinal epithelial cells leads to enhanced inflammasome activation and IL-1β production. (Ravindran et al. Nature. 2016, 531(7595):523-527). To understand if Compound 1 mediated IL-1β induction is downstream of GCN2 pathway, an isogenic MV4-11 Cas9 cell pair either expressing endogenous wildtype GCN2 or with the gene deleted was used. GCN2 knock down suppressed the induction of phosphor-eIF2a, ATF4, CHOP and cleaved caspase 8 by Compound 1 (FIG. 9A). […] These evidences pointed that pro-[…] up-regulation and secreted IL-1β induction are both downstream effects of GCN2 pathway activation, and distinct from the GCN2 mediated classical inflammasome pathway inhibition reported in gut cells (Ravindran et al. Nature. 2016, 531(7595):523-527).

[4] = pH 5

Molecule `O=C1CCC(N2Cc3cc(CNC(=O)C(F)(F)c4ccc(Cl)cc4)ccc3C2=O)C(=O)N1` (centres unmarked) [Compound 1, 2-(4-chlorophenyl)-N-((2-(2,6-dioxopiperidin-3-yl)-1-oxoisoindolin-5-yl)methyl)-2,2-difluoroacetamide] has an IC50 (KG-1) of 0.0089 µM, an IC50 (MOLM-13) of 0.0762 µM and an IC50 (MV4-11) of 0.0173 µM. It also gave an IC50 (NOMO-1) of 0.0578 µM, an IC50 (TF-1) of 0.105 µM and an IL-1β induction [1] of 1.88. For the same molecule, the IL-18 induction [1] was 0.90, the “Induction of IL-1β release” value ([2]; caspase 8 knock out ML-2 cells) was “compromised” and the Pro-IL-1β upregulation ([2]; caspase 8 knock out ML-2 cells) was “remains intact”. The “Pro-IL-1β upregulation and secreted IL-1β” value ([2]; parental and caspase 1 knock out ML-2 cells, 48 and 72 hours) was “Upregulation of pro-IL-13 and increased secreted IL-1β were evident”, the “Induction of phosphor-eIF2a, ATF4, CHOP and cleaved caspase 8” value ([3]; GCN2 knock down) was “suppressed” and the “Intracellular and supernatant IL-1β induction” value ([3]; GCN2 knock out cells compared to parental cells) was “markedly suppressed”. For the same molecule, the Pro-IL-1β upregulation ([3]; absence of GCN2) was “abolished” and the “Solution Stability” value [4] was “DS is not stable in solution at pH of 5.0 or above”.
